Patent publication US11434249B1, “ASK1 inhibitor compounds and uses thereof” (Seal Rock Therapeutics, Inc., priority 2018, dated 2022)

target: ASK1 (Homo sapiens (Human), UniProt Q99683); experiment: ASK1 Kinase Assay (Promega ASK1 Kinase Enzyme System, ADP-Glo luminescence); format: biochemical; settings: at 10 μM compound; enzyme 50 nM, ATP 10 μM
Method: The ASK1 enzymatic assay was run following Promega ASK1 Kinase Enzyme System (Cat #V3881). The kit provides the protocol, enzymes and all reagents necessary to run an assay.
The compounds, enzyme, substrate and ATP were diluted in provided assay buffer. The final concentration of the enzyme was 50 nM, substrate (Myelin basic protein) 1 μg/mL and ATP 10 μM. The compound and the enzyme were pre-incubated in a 384-well white solid bottom plate (Greiner, Cat #784075) for 10 minutes. After incubation, the substrate and ATP were added and incubated for an additional 60 minutes. After 60 minutes, ADP-Glo™ was added and the plate was incubated for another 40 minutes. After 40 minutes, Kinase Detection Reagent was added and the plate was incubated for 45 minutes. After 45 minutes, the plate was read on a Perkin Elmer EnVision using luminescence read (0.5 seconds/well).

ASK1, sequence (Q99683 whole entry): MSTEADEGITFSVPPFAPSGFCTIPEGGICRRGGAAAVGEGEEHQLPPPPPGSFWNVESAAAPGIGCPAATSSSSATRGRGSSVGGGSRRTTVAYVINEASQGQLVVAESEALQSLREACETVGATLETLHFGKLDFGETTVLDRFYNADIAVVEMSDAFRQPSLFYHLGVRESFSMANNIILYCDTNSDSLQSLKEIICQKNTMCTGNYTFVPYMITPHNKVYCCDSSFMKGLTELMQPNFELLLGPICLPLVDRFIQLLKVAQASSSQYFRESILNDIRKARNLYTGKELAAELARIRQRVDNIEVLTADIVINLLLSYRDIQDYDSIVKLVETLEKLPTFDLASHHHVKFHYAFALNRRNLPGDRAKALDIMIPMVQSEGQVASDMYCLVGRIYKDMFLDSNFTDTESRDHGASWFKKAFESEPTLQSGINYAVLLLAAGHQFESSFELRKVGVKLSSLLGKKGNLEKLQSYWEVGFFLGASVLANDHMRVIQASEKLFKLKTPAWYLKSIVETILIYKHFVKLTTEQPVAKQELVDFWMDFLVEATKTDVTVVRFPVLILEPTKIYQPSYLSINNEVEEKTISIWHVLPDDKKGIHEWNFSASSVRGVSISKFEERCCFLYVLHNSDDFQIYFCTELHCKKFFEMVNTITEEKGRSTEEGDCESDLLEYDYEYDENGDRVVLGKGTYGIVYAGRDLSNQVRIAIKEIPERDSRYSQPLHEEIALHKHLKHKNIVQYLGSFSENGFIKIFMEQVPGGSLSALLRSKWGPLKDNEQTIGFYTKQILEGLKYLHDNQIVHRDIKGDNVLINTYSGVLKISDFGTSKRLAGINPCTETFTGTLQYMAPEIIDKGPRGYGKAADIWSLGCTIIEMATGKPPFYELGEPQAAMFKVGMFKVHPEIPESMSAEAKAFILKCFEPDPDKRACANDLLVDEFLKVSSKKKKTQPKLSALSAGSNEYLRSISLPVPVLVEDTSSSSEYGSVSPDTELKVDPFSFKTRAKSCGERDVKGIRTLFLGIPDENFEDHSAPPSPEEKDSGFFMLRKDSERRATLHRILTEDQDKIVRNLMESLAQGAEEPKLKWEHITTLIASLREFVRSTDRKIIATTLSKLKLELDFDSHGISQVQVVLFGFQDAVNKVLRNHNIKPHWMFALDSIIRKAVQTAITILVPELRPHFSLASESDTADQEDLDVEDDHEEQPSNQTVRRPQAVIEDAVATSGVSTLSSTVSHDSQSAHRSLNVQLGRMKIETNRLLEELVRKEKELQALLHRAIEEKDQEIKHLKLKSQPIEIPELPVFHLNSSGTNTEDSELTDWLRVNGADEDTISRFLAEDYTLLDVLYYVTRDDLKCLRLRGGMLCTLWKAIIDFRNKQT

Structure (SMILES)	inhibition at 10 µM [%]
O=C1c2scc(-c3ccccc3)c2CN1c1cccc(-c2nncn2C2CC2)n1 [Example 7, 5-(6-(4-cyclopropyl-4H-1,2,4-triazol-3-yl)pyridin-2-yl)-3-phenyl-4,5-dihydro-6H-thieno[2,3-c]pyrrol-6-one]	45

same assay, conditions: enzyme 50 nM, Myelin basic protein 1 μg/mL, ATP 10 μM

Structure (SMILES)	IC50 [nM]
COc1cc2c(s1)C(=O)N(c1cccc(-c3nncn3C3CC3)n1)C2 [Example 13, 5-(6-(4-cyclopropyl-4H-1,2,4-triazol-3-yl)pyridin-2-yl)-2-methoxy-4,5-dihydro-6H-thieno[2,3-c]pyrrol-6-one]	< 1000
CC(C)n1cnnc1-c1cccc(N2Cc3ccsc3C2=O)n1 [Example 14, 5-(6-(4-isopropyl-4H-1,2,4-triazol-3-yl)pyridin-2-yl)-4,5-dihydro-6H-thieno[2,3-c]pyrrol-6-one]	< 1000
Cc1csc2c1CN(c1cccc(-c3nncn3C3CC3)n1)C2=O [Example 9, 5-(6-(4-cyclopropyl-4H-1,2,4-triazol-3-yl)pyridin-2-yl)-3-methyl-4,5-dihydro-6H-thieno[2,3-c]pyrrol-6-one]	< 1000
O=C1c2sc3ccccc3c2CN1c1cccc(-c2nncn2C2CC2)n1 [Example 12, 2-(6-(4-cyclopropyl-4H-1,2,4-triazol-3-yl)pyridin-2-yl)-1,2-dihydro-3H-benzo[4,5]thieno[2,3-c]pyrrol-3-one]	< 1000
CCc1cc2c(s1)C(=O)N(c1cccc(-c3nncn3C3CC3)n1)C2 [Example 6, 5-(6-(4-cyclopropyl-4H-1,2,4-triazol-3-yl)pyridin-2-yl)-2-ethyl-4,5-dihydro-6H-thieno[2,3-c]pyrrol-6-one]	< 1000
O=C1c2sc(C3CCOCC3)cc2CN1c1cccc(-c2nncn2C2CC2)n1 [Example 4, 5-(6-(4-cyclopropyl-4H-1,2,4-triazol-3-yl)pyridin-2-yl)-2-(tetrahydro-2H-pyran-4-yl)-4,5-dihydro-6H-thieno[2,3-c]pyrrol-6-one]	< 1000
O=C1c2scc(Br)c2CN1c1cccc(-c2nncn2C2CC2)n1 [Example 10, 3-bromo-5-(6-(4-cyclopropyl-4H-1,2,4-triazol-3-yl)pyridin-2-yl)-4,5-dihydro-6H-thieno[2,3-c]pyrrol-6-one]	< 1000
O=C1c2sccc2CN1c1cccc(-c2nncn2C2CC2)n1 [Example 1, 5-(6-(4-Cyclopropyl-4H-1,2,4-triazol-3-yl)pyridin-2-yl)-4,5-dihydro-6H-thieno[2,3-c]pyrrol-6-one]	< 1000
Cc1cc2c(s1)C(=O)N(c1cccc(-c3nncn3C3CC3)n1)C2 [Example 5, 5-(6-(4-cyclopropyl-4H-1,2,4-triazol-3-yl)pyridin-2-yl)-2-methyl-4,5-dihydro-6H-thieno[2,3-c]pyrrol-6-one]	< 1000
CC(=O)c1ccccc1-c1cc2c(s1)C(=O)N(c1cccc(-c3nncn3C3CC3)n1)C2 [Example 2, 2-(2-Acetylphenyl)-5-(6-(4-cyclopropyl-4H-1,2,4-triazol-3-yl)pyridin-2-yl)-4,5-dihydro-6H-thieno[2,3-c]pyrrol-6-one]	< 1000
CC(C)CNc1csc2c1CN(c1cccc(-c3nncn3C3CC3)n1)C2=O [Example 11, 5-(6-(4-cyclopropyl-4H-1,2,4-triazol-3-yl)pyridin-2-yl)-3-(isobutylamino)-4,5-dihydro-6H-thieno[2,3-c]pyrrol-6-one]	1000 to 10000
